ChEMBL document CHEMBL5357009, “Positive Allosteric Modulators of alpha7 Nicotinic Acetylcholine Receptor for the Treatment of Several Central Nervous System Diseases” (ACS Med Chem Lett, 2024)

Biological target: Neuronal acetylcholine receptor subunit alpha-7 (Homo sapiens, UniProt P36544)
Assay: Positive allosteric modulation of human alpha7 nAChR expressed in HEK cells assessed as potentiation of acetylcholine induced peak current amplitude preincubated for 58 secs followed by acetylcholine stimulation for 1 secs by automated patch-clamp electrophysiology
Format: cell-based

Sequence of Neuronal acetylcholine receptor subunit alpha-7 (P36544 whole entry): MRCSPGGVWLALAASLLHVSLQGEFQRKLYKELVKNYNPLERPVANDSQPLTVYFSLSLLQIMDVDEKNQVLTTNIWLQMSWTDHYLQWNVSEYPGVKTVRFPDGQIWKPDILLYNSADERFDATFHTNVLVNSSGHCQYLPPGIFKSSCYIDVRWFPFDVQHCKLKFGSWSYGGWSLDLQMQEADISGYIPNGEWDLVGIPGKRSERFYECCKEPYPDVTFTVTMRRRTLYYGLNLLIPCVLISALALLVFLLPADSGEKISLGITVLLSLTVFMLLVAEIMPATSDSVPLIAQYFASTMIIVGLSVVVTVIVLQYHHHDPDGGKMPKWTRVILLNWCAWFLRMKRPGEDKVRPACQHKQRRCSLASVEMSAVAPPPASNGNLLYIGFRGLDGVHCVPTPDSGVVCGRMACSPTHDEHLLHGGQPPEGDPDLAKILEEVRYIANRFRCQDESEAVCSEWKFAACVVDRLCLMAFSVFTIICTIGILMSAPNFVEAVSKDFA

Compound	EC50 [nM]
CCOc1ccc([C@H](COC)NC(=O)C2CC23CCCc2ccccc23)cc1 (some centres undefined)	740
O=C(N[C@@H](CO)C1CCCCC1)C1CC12COc1ccc(F)cc12 (some centres undefined)	770
O=C(NC1(c2ccc(F)cc2)COC1)C1CC12CCc1ccccc12 (centres undefined)	3200
O=C(N[C@@H](CO)C1CCCCC1)C1CC12COc1ccccc12 (some centres undefined)	630
CCOc1ccc([C@H](COC)NC(=O)C2CC23CCc2cc(F)ccc23)cc1 (some centres undefined)	590
O=C(NC1(c2ccc(F)cc2)COC1)C1CC12CCc1ccc(F)cc12 (centres undefined)	820
CCOc1ccc([C@H](COC)NC(=O)C2CC23CCc2ccc(F)cc23)cc1 (some centres undefined)	700
CCOc1ccc([C@H](CF)NC(=O)C2CC23COc2ccc(F)cc23)cn1 (some centres undefined)	790
CCOc1ccc([C@@H](NC(=O)C2CC23COc2ccc(F)cc23)C(F)F)cn1 (some centres undefined)	3000
